Laboratory results published in patent US6528532B1, “Urea derivatives as HIV aspartyl protease inhibitors” (Pharmacor Inc., priority 2002, dated 2003).

How the values were obtained:
in vitro = assay type: cell-based; conditions: human
Protocol: To evaluate the EC50 of our compounds, various drug concentrations are incubated with the infected cell for six days and then the metabolic activity of the cells is monitored by the MTT assay. (See A. J. Japour et al, Antimicrobial Agents and Chemotherapy, 37, 1095-1101, 1993 and R. Pauwels et al. Journal of Virological Methods, 20, 309-321, 1988).
We use the laboratory viral strain NL4.3 as wild type virus and the cell line used is MT-4 which is a T-cell line highly sensitive to HIV-1. We also use some WT clinical strains. To address the resistance issue we assay the inhibitors with NL4.3 mutants which are designed to be resistant to specific commercially available inhibitors.
The same MTT assay is used to evaluate the CCIC50 (cell culture IC50) of our compounds except that the virus is omitted.

HIV protease = HIV protease (Human immunodeficiency virus type 1 group M subtype B, UniProt P04585); assay: Enzymatic (FRET fluorometric) assay for determining the inhibition constant (Ki) of compounds targeting the HIV protease; assay type: biochemical; conditions: Ki, FRET substrate (EDANS/DABCYL), equation of Henderson
Text: Enzymatic Assay for Determining the Inhibition Constant (Ki) of Synthetic Compounds Targeting the HIV Protease
This is a fluorometric assay based on the cleavage by protease of a substrate carrying a donor group (EDANS) and an acceptor group (DABCYL) on each side of the cleavage site, interacting together through fluorescence resonance energy transfer (FRET) as described by Matayoshi et al. (Science 247:[…], 1990).
After calculation of Vo and Vi, the inhibition constant (Ki) of the compound is determined using the equation of Henderson: [formula]
where Vo=the enzyme's initial velocity
Vi=the enzyme velocity in the presence of the inhibitory compound,
[I]=inhibitor concentration, [S]=substrate concentration,
Km=Michaelis-Menten constant and Kiapp=apparent Ki
Graphs are traced and the Ki determined using GraphPad Prism software v. 3.0.

With `Cc1ccc(S(=O)(=O)N(CC(C)C)[C@H](CO)CCCCNC(=O)N(Cc2ccccc2)Cc2ccc([N+](=O)[O-])cc2)cc1` [Example 61, (2S) 2-N-Isobutyl-2-N-(4-methylbenzenesulfonyl)-6-N-[N′-benzyl-N′-(4-nitrobenzyl)aminocarbonyl]-2,6-diaminohexanol] as the molecule, how does the IC50 at 6 days (in vitro) read?
Its IC50 at 6 days is 5.1 µM.

What about the Ki (HIV protease) of the same molecule?
The Ki was 9 nM.

For `COc1cc(CN(Cc2ccc3c(c2)OCO3)C(=S)NCCCC[C@@H](CO)N(CCC(C)C)S(=O)(=O)c2ccc(N)cc2)cc(OC)c1OC` [Example 107, (2S) 2-N-(4-Aminobenzenesulfonyl)-2-N-(3-methylbutyl)-6-N-[N′-(3,4,5-trimethoxybenzyl)-N′-piperonylaminothiocarbonyl]-2,6-diaminohexanol], which IC50 at 6 days (in vitro) is on record?
The IC50 at 6 days was 10.7 µM.

Which IC50 at 6 days (in vitro) does the source give for `CC(C)CN([C@H](CO)CCCCNC(=O)N(Cc1ccc(F)cc1)Cc1ccc2c(c1)OCO2)S(=O)(=O)c1ccc(N)cc1` [Example 67, (2S) 2-N-(4-Aminobenzenesulfonyl)-2-N-isobutyl-6-N-[N′-(4-fluorobenzyl)-N′-piperonylaminocarbonyl]-2,6-diaminohexanol] here?
Its IC50 at 6 days is 11 µM.

What about the Ki (HIV protease) of the same molecule?
The Ki was 2 nM.

Which IC50 at 6 days (in vitro) does the source give for `CC(C)CN([C@H](CO)CCCCNC(=O)N(Cc1ccc2c(c1)OCO2)Cc1ccc2c(c1)OCO2)S(=O)(=O)c1ccc(N)cc1` [Example 85, (2S) 2-N-(4-Aminobenzenesulfonyl)-2-N-isobutyl-6-N-(N′,N′-dipiperonylaminocarbonyl)-2,6-diaminohexanol] here?
The IC50 at 6 days was 13.1 µM.

What about the Ki (HIV protease) of the same molecule?
Its Ki is 1.7 nM.

Which IC50 at 6 days (in vitro) does the source give for `CC(C)CCN([C@H](CO)CCCCNC(=O)N(Cc1ccncc1)Cc1ccc2c(c1)OCO2)S(=O)(=O)c1ccc(N)cc1` [Example 95, (2S) 2-N-(4-Aminobenzenesulfonyl)-2-N-(3-methylbutyl)-6-N-[N′-(4-picolyl)-N′-piperonylaminocarbonyl]-2,6-diaminohexanol] here?
Its IC50 at 6 days is 28.8 µM.

For `CC(C)CN([C@H](CO)CCCCNC(=O)N(Cc1ccccc1)Cc1ccc2c(c1)OCO2)S(=O)(=O)c1ccc(N)cc1` [Example 82, (2S) 2-N-(4-Aminobenzenesulfonyl)-2-N-isobutyl-6-N-(N′-benzyl-N′-piperonylaminocarbonyl)-2,6-diaminohexanol], which IC50 at 6 days (in vitro) is on record?
The IC50 at 6 days was 12.5 µM.

What about the Ki (HIV protease) of the same molecule?
The Ki was 2.6 nM.

Which IC50 at 6 days (in vitro) does the source give for `CC(C)CCN([C@H](CO)CCCCNC(=O)N(Cc1ccc(F)cc1)Cc1ccc2c(c1)OCO2)S(=O)(=O)c1ccc(N)cc1` [Example 102, (2S) 2-N-(4-Aminobenzenesulfonyl)-2-N-(3-methylbutyl)-6-N-[N′-(4-fluorobenzyl)-N′-piperonylaminocarbonyl]-2,6-diaminohexanol] here?
The IC50 at 6 days was 24.4 µM.

Which IC50 at 6 days (in vitro) does the source give for `Cc1ccc(S(=O)(=O)N(CC(C)C)[C@H](CO)CCCCNC(=O)N(Cc2ccccc2)Cc2ccccc2[N+](=O)[O-])cc1` [Example 59, (2S) 2-N-Isobutyl-2-N-(4-methylbenzenesulfonyl)-6-N-[N′-benzyl-N′-(2-nitrobenzyl)aminocarbonyl]-2,6-diaminohexanol] here?
The IC50 at 6 days was 4.6 µM.

What about the Ki (HIV protease) of the same molecule?
Its Ki is 1.7 nM.

What does the source list for `Cc1ccc(S(=O)(=O)N(CC(C)C)[C@H](CO)CCCCNC(=O)N(Cc2ccccc2)Cc2cccc([N+](=O)[O-])c2)cc1` [Example 60, (2S) 2-N-Isobutyl-2-N-(4-methylbenzenesulfonyl)-6-N-[N′-benzyl-N′-(3-nitrobenzyl)aminocarbonyl]-2,6-diaminohexanol]?
IC50 at 6 days (in vitro): 4.6 µM; Ki (HIV protease): 6 nM
